Columns and labels:
Assay type in all cases: cell-based, Chinese hamster
[1] = Example 1: cell number (hemocytometer) and viability (trypan blue); details: Chinese hamster; for viability at 0 day, 1 μM / viability at 3 day, 1 μM / viability at 5 day, 1 μM / viability at 7 day, 1 μM / viability at 10 day, 1 μM: 1 μM decitabine; for viability at 0 day, 1 μM / viability at 0 day, 5 μM / viability at 0 day, 10 μM: day 0; for viability at 3 day, 1 μM / viability at 3 day, 5 μM / viability at 3 day, 10 μM: day 3; for viability at 5 day, 1 μM / viability at 5 day, 5 μM / viability at 5 day, 10 μM: day 5; for viability at 7 day, 1 μM / viability at 7 day, 5 μM / viability at 7 day, 10 μM: day 7; for viability at 0 day, 5 μM / viability at 3 day, 5 μM / viability at 5 day, 5 μM / viability at 7 day, 5 μM / viability at 10 day, 5 μM: 5 μM decitabine
Protocol: (§1) The following experiment was designed to test whether decitabine can induce the production of a protein, in this case a recombinant soluble form of the human interleukin 1 receptor type II (IL-1-R-II), at either 31° C. or 34° C. Soluble versions of IL-1R-II and methods for producing it are described in U.S. Pat. No. 5,767,064. DNA encoding a soluble form of the human IL-1R-II was inserted into pG3.6, which is described in Morris et al. ((1998), Cytotechnology 28:9-17). This construct was used to transfect CHO cells to produce cell lines, including 25H9, that produce IL-1R-II protein.
(§2) About 2×10^6 cells of cell line 25H9 were inoculated into 30 milliliters of serum-free medium and incubated at the temperatures indicated in Table 1 in vented shake flasks. At the times indicated in Table 1, samples were taken from each flask to determine IL-1R-II titer, cell number, and cell viability. IL-1R-II protein titer was determined by ELISA assay. Cell number was determined by counting cells in a hemocytometer. Cell viability was determined by trypan blue staining and counting stained cells in a hemocytometer. Cumulative viable cell density (CVCD) is the area under the curve of a plot of the viable cell density versus time (in units of cells/ml/day). Productivity (pg of IL-1R-II/cell/day) was determined by dividing the protein titer on a particular day by the CVCD on the same day. Cells were fed with amino acids on days 2 and 5, and dextrose was added periodically in order to maintain levels above 2.0 g/L. All samples were done in duplicate, and the data shown is an average value.

[2] = test system: cell line 25H9 (CHO cells); test: as above
Protocol: as §1, §2

[3] = Example 2: cell number and viability; details: Chinese hamster; for viability at 6 day, 10 μM / viability at 8 day, 10 μM / viability at 0 day, 10 μM / viability at 3 day, 10 μM: 10 μM decitabine; for viability at 6 day, 10 μM / viability at 6 day, 15 μM / viability at 6 day, 20 μM: day 6; for viability at 8 day, 10 μM / viability at 8 day, 15 μM / viability at 8 day, 20 μM: day 8; for viability at 0 day, 15 μM / viability at 3 day, 15 μM / viability at 6 day, 15 μM / viability at 8 day, 15 μM: 15 μM decitabine; for viability at 0 day, 15 μM / viability at 0 day, 20 μM / viability at 0 day, 10 μM: day 0; for viability at 3 day, 15 μM / viability at 3 day, 20 μM / viability at 3 day, 10 μM: day 3; for viability at 0 day, 20 μM / viability at 3 day, 20 μM / viability at 6 day, 20 μM / viability at 8 day, 20 μM: 20 μM decitabine
Protocol: as §2
To determine an optimum temperature and decitabine concentration, three temperatures (30° C., 31° C., and 32° C.) and three decitabine concentrations (10 μM, 15 μM, and 20 μM) were tested. A 31° C. culture containing 0.5 mM sodium butyrate was grown as a control. […] See e.g. International Application Nos. WO 89/06686 and WO 87/05626. The experiment was performed as in Example 1 except that the inducer concentrations, temperatures, and days at which data was collected are as indicated in Table 2 and FIG. 1.

[4] = 31° C., 10 μM decitabine, day 10
[5] = 31° C., 1 μM decitabine, day 10
[6] = 31° C., 5 μM decitabine, day 10
[7] = 31° C., 10 μM decitabine, day 0
[8] = 31° C., 10 μM decitabine, day 3
[9] = 31° C., 10 μM decitabine, day 5
[10] = 31° C., 10 μM decitabine, day 7
[11] = 34° C., 1 μM decitabine, day 10
[12] = 34° C., 5 μM decitabine, day 10
[13] = 34° C., 10 μM decitabine, day 0
[14] = 34° C., 10 μM decitabine, day 3
[15] = 34° C., 10 μM decitabine, day 5
[16] = 34° C., 10 μM decitabine, day 7
[17] = CHO cell line 25H9 producing IL-1R-II, 30° C.
[18] = cell line 25H9 (CHO cells), 30° C.
[19] = cell line 25H9 (CHO cells), 31° C.
[20] = cell line 25H9 (CHO cells), 32° C.

Nc1ncn([C@H]2C[C@H](O)[C@@H](CO)O2)c(=O)n1 [decitabine, 5-aza-2′-deoxycytidine]
viability at 0 day, 1 μM ([1]; 31° C.): 96.1%
viability at 3 day, 1 μM ([1]; 31° C.): 93.4%
viability at 5 day, 1 μM ([1]; 31° C.): 94.8%
viability at 7 day, 1 μM ([1]; 31° C.): 87.7%
viability at 10 day, 1 μM ([1]; 31° C., day 10): 63.9%
viability at 0 day, 5 μM ([1]; 31° C.): 96.1%
viability at 3 day, 5 μM ([1]; 31° C.): 93.6%
viability at 5 day, 5 μM ([1]; 31° C.): 84.6%
viability at 7 day, 5 μM ([1]; 31° C.): 77.7%
viability at 10 day, 5 μM ([1]; 31° C., day 10): 58.5%
viability at 0 day, 10 μM ([1]; 31° C., 10 μM decitabine): 96.1%
viability at 3 day, 10 μM ([1]; 31° C., 10 μM decitabine): 94.5%
viability at 5 day, 10 μM ([1]; 31° C., 10 μM decitabine): 80.8%
viability at 7 day, 10 μM ([1]; 31° C., 10 μM decitabine): 72.5%
viability at 10 day, 10 μM [1, 4]: 50.6%
viability at 0 day, 1 μM ([1]; 34° C.): 96.1%
viability at 3 day, 1 μM ([1]; 34° C.): 93.6%
viability at 5 day, 1 μM ([1]; 34° C.): 91.5%
viability at 7 day, 1 μM ([1]; 34° C.): 55%
viability at 10 day, 1 μM ([1]; 34° C., day 10): 21.4%
viability at 0 day, 5 μM ([1]; 34° C.): 96.1%
viability at 3 day, 5 μM ([1]; 34° C.): 96.1%
viability at 5 day, 5 μM ([1]; 34° C.): 80.3%
viability at 7 day, 5 μM ([1]; 34° C.): 62.7%
viability at 10 day, 5 μM ([1]; 34° C., day 10): 33.3%
viability at 0 day, 10 μM ([1]; 34° C., 10 μM decitabine): 96.1%
viability at 3 day, 10 μM ([1]; 34° C., 10 μM decitabine): 93.6%
viability at 5 day, 10 μM ([1]; 34° C., 10 μM decitabine): 75.3%
viability at 7 day, 10 μM ([1]; 34° C., 10 μM decitabine): 43.9%
Cumulative Viable Cell Density ([2]; 31° C., 1 μM decitabine, day 0): 0 mL⁻¹ day⁻¹
Viable Cell Density ([2]; 31° C., 1 μM decitabine, day 0): 1.8e+06 mL⁻¹
Cumulative Viable Cell Density ([2]; 31° C., 1 μM decitabine, day 3): 8.3e+06 mL⁻¹ day⁻¹
Viable Cell Density ([2]; 31° C., 1 μM decitabine, day 3): 3.7e+06 mL⁻¹
Cumulative Viable Cell Density ([2]; 31° C., 1 μM decitabine, day 5): 1.7e+07 mL⁻¹ day⁻¹
Viable Cell Density ([2]; 31° C., 1 μM decitabine, day 5): 5e+06 mL⁻¹
Cumulative Viable Cell Density ([2]; 31° C., 1 μM decitabine, day 7): 2.77e+07 mL⁻¹ day⁻¹
Viable Cell Density ([2]; 31° C., 1 μM decitabine, day 7): 5.7e+06 mL⁻¹
Cumulative Viable Cell Density [2, 5]: 4.38e+07 mL⁻¹ day⁻¹
Viable Cell Density [2, 5]: 5.1e+06 mL⁻¹
Cumulative Viable Cell Density ([2]; 31° C., 5 μM decitabine, day 0): 0 mL⁻¹ day⁻¹
Viable Cell Density ([2]; 31° C., 5 μM decitabine, day 0): 1.8e+06 mL⁻¹
Cumulative Viable Cell Density ([2]; 31° C., 5 μM decitabine, day 3): 8.5e+06 mL⁻¹ day⁻¹
Viable Cell Density ([2]; 31° C., 5 μM decitabine, day 3): 3.8e+06 mL⁻¹
Cumulative Viable Cell Density ([2]; 31° C., 5 μM decitabine, day 5): 1.57e+07 mL⁻¹ day⁻¹
Viable Cell Density ([2]; 31° C., 5 μM decitabine, day 5): 3.5e+06 mL⁻¹
Cumulative Viable Cell Density ([2]; 31° C., 5 μM decitabine, day 7): 2.28e+07 mL⁻¹ day⁻¹
Viable Cell Density ([2]; 31° C., 5 μM decitabine, day 7): 3.6e+06 mL⁻¹
Cumulative Viable Cell Density [2, 6]: 4e+07 mL⁻¹ day⁻¹
Viable Cell Density [2, 6]: 7.8e+06 mL⁻¹
Cumulative Viable Cell Density [2, 7]: 0 mL⁻¹ day⁻¹
Viable Cell Density [2, 7]: 1.8e+06 mL⁻¹
Cumulative Viable Cell Density [2, 8]: 7.4e+06 mL⁻¹ day⁻¹
Viable Cell Density [2, 8]: 3.1e+06 mL⁻¹
Cumulative Viable Cell Density [2, 9]: 1.44e+07 mL⁻¹ day⁻¹
Viable Cell Density [2, 9]: 3.9e+06 mL⁻¹
Cumulative Viable Cell Density [2, 10]: 2.15e+07 mL⁻¹ day⁻¹
Viable Cell Density [2, 10]: 3.3e+06 mL⁻¹
Cumulative Viable Cell Density [2, 4]: 3.18e+07 mL⁻¹ day⁻¹
Viable Cell Density [2, 4]: 3.6e+06 mL⁻¹
Cumulative Viable Cell Density ([2]; 34° C., 1 μM decitabine, day 0): 0 mL⁻¹ day⁻¹
Viable Cell Density ([2]; 34° C., 1 μM decitabine, day 0): 1.8e+06 mL⁻¹
Cumulative Viable Cell Density ([2]; 34° C., 1 μM decitabine, day 3): 1.14e+07 mL⁻¹ day⁻¹
Viable Cell Density ([2]; 34° C., 1 μM decitabine, day 3): 5.7e+06 mL⁻¹
Cumulative Viable Cell Density ([2]; 34° C., 1 μM decitabine, day 5): 2.55e+07 mL⁻¹ day⁻¹
Viable Cell Density ([2]; 34° C., 1 μM decitabine, day 5): 8.4e+06 mL⁻¹
Cumulative Viable Cell Density ([2]; 34° C., 1 μM decitabine, day 7): 4.15e+07 mL⁻¹ day⁻¹
Viable Cell Density ([2]; 34° C., 1 μM decitabine, day 7): 7.6e+06 mL⁻¹
Cumulative Viable Cell Density [2, 11]: 5.69e+07 mL⁻¹ day⁻¹
Viable Cell Density [2, 11]: 2.7e+06 mL⁻¹
Cumulative Viable Cell Density ([2]; 34° C., 5 μM decitabine, day 0): 0 mL⁻¹ day⁻¹
Viable Cell Density ([2]; 34° C., 5 μM decitabine, day 0): 1.8e+06 mL⁻¹
Cumulative Viable Cell Density ([2]; 34° C., 5 μM decitabine, day 3): 1.16e+07 mL⁻¹ day⁻¹
Viable Cell Density ([2]; 34° C., 5 μM decitabine, day 3): 5.9e+06 mL⁻¹
Cumulative Viable Cell Density ([2]; 34° C., 5 μM decitabine, day 5): 2.47e+07 mL⁻¹ day⁻¹
Viable Cell Density ([2]; 34° C., 5 μM decitabine, day 5): 7.2e+06 mL⁻¹
Cumulative Viable Cell Density ([2]; 34° C., 5 μM decitabine, day 7): 3.81e+07 mL⁻¹ day⁻¹
Viable Cell Density ([2]; 34° C., 5 μM decitabine, day 7): 6.3e+06 mL⁻¹
Cumulative Viable Cell Density [2, 12]: 5.27e+07 mL⁻¹ day⁻¹
Viable Cell Density [2, 12]: 3.4e+06 mL⁻¹
Cumulative Viable Cell Density [2, 13]: 0 mL⁻¹ day⁻¹
Viable Cell Density [2, 13]: 1.8e+06 mL⁻¹
Cumulative Viable Cell Density [2, 14]: 9.8e+06 mL⁻¹ day⁻¹
Viable Cell Density [2, 14]: 4.7e+06 mL⁻¹
Cumulative Viable Cell Density [2, 15]: 1.93e+07 mL⁻¹ day⁻¹
Viable Cell Density [2, 15]: 4.8e+06 mL⁻¹
Cumulative Viable Cell Density [2, 16]: 2.73e+07 mL⁻¹ day⁻¹
Viable Cell Density [2, 16]: 3.2e+06 mL⁻¹
viability at 6 day, 10 μM [3, 17]: 70.3%
viability at 8 day, 10 μM [3, 17]: 49%
viability at 0 day, 15 μM [3, 17]: 94.2%
viability at 3 day, 15 μM [3, 17]: 88.9%
viability at 6 day, 15 μM [3, 17]: 85.9%
viability at 8 day, 15 μM [3, 17]: 33.2%
viability at 0 day, 20 μM [3, 17]: 94.2%
viability at 3 day, 20 μM [3, 17]: 93.3%
viability at 6 day, 20 μM [3, 17]: 77%
viability at 8 day, 20 μM [3, 17]: 48.4%
viability at 0 day, 10 μM ([3]; CHO cell line 25H9 producing IL-1R-II, 31° C.): 94.2%
viability at 0 day, 10 μM [3, 18]: 94.2%
viability at 3 day, 10 μM [3, 18]: 91.8%
viability at 3 day, 10 μM [3, 19]: 89.3%
viability at 6 day, 10 μM [3, 19]: 79.6%
viability at 8 day, 10 μM [3, 19]: 63.5%
viability at 0 day, 15 μM [3, 19]: 94.2%
viability at 3 day, 15 μM [3, 19]: 97.6%
viability at 6 day, 15 μM [3, 19]: 78.9%
viability at 8 day, 15 μM [3, 19]: 57.6%
viability at 0 day, 20 μM [3, 19]: 94.2%
viability at 3 day, 20 μM [3, 19]: 87.7%
viability at 6 day, 20 μM [3, 19]: 77.9%
viability at 8 day, 20 μM [3, 19]: 57.2%
viability at 0 day, 10 μM [3, 20]: 94.2%
viability at 3 day, 10 μM [3, 20]: 85.4%
viability at 6 day, 10 μM [3, 20]: 71.7%
viability at 8 day, 10 μM [3, 20]: 42.3%
viability at 0 day, 15 μM [3, 20]: 94.2%
viability at 3 day, 15 μM [3, 20]: 87.6%
viability at 6 day, 15 μM [3, 20]: 65.4%
viability at 8 day, 15 μM [3, 20]: 36.1%
viability at 0 day, 20 μM [3, 20]: 94.2%
viability at 3 day, 20 μM [3, 20]: 89.1%
viability at 6 day, 20 μM [3, 20]: 64.7%
viability at 8 day, 20 μM [3, 20]: 41.1%

— patent publication US6890736B1, “Methods for producing proteins in cultured cells” (Immunex Corporation, priority 2002, dated 2005)
